Test results from ChEMBL document CHEMBL5584338, “Design, Synthesis, and Biological Evaluation of 5-Amino-4-fluoro-1H-benzo[d]imidazole-6-carboxamide Derivatives as Novel and Potential MEK/RAF Complex Inhibitors Based on the "Clamp" Strategy” (J Med Chem, 2024).
Activity calls are given as the source filed them. No cut-off for these calls is given here.

Columns and labels:
MIA PaCa-2 [1] = assay: Antiproliferative activity against human MIA PaCa-2 cells harboring KRAS G12C mutant at 0.1 uM incubated for 72 hrs by CCK8 assay relative to control; type: functional
HCT-116 [2] = assay: Antiproliferative activity against human HCT-116 cells harboring KRAS G13D mutant at 1 uM incubated for 72 hrs by CCK8 assay relative to control; type: functional
MIA PaCa-2 [3] = assay: Antiproliferative activity against human MIA PaCa-2 cells harboring KRAS G12C mutant incubated for 72 hrs by CCK8 assay; type: functional, cell-based; conditions: MIA PaCa-2, 72 h
HCT-116 [4] = assay: Antiproliferative activity against human HCT-116 cells harboring KRAS G13D mutant incubated for 72 hrs by CCK8 assay; type: functional, cell-based; conditions: HCT-116, 72 h
[5] = biological target: T1, Dual specificity mitogen-activated protein kinase kinase 1 (Homo sapiens, UniProt Q02750); assay: Inhibition of MEK1 (unknown origin)
T1 sequence (Q02750 whole entry): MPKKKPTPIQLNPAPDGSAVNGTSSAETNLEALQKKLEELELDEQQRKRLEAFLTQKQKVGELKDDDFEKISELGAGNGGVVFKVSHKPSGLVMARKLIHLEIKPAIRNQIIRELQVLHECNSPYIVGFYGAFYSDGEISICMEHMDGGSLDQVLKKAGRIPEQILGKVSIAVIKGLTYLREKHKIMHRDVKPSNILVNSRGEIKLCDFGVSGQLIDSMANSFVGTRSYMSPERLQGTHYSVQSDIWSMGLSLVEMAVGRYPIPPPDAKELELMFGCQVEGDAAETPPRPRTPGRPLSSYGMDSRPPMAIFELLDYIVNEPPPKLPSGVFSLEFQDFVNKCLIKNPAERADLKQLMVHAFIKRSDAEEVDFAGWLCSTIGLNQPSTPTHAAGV

[6] = biological target: T2, Serine/threonine-protein kinase B-raf (Homo sapiens, UniProt P15056); assay: Inhibition of BRAF (unknown origin)
T2 sequence (P15056 whole entry): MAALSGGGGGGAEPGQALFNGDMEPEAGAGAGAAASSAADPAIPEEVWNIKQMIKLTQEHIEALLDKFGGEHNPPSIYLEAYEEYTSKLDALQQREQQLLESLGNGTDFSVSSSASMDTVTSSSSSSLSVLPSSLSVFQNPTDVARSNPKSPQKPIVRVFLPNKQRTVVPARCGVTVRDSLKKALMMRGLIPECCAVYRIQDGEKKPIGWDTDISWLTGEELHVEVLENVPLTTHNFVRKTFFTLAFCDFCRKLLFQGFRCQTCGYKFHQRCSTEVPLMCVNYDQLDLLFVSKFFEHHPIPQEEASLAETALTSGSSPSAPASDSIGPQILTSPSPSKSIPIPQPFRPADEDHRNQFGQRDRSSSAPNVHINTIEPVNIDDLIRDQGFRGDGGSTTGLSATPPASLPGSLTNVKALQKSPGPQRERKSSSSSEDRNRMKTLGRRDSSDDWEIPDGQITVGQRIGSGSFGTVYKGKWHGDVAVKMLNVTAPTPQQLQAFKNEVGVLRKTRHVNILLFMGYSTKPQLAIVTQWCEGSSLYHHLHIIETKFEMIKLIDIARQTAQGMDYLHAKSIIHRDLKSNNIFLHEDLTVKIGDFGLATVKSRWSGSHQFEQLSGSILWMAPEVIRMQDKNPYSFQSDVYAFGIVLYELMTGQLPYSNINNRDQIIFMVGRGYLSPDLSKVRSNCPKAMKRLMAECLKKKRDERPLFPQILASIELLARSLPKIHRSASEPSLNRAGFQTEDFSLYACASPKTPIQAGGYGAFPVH

[7] = biological target: T1, Dual specificity mitogen-activated protein kinase kinase 1; assay: Inhibition of MEK1 (unknown origin) assessed as remaining activity at 0.1 uM relative to control
[8] = biological target: T2, Serine/threonine-protein kinase B-raf; assay: Inhibition of BRAF (unknown origin) assessed as remaining activity at 0.1 uM relative to control
[9] = Inhibition of BRAF […] mutant (unknown origin); parameters: species or system Homo sapiens
[10] = Antiproliferative activity against mouse C26 cells harboring KRAS G12D mutant incubated for 72 hrs by CCK8 assay; type: functional, cell-based, C-26; conditions: C26, 72 h
HeLa = assay: Antiproliferative activity against human HeLa cells incubated for 72 hrs by CCK8 assay; type: functional, cell-based
[11] = Antiproliferative activity against rat H9c2 cells incubated for 72 hrs by CCK8 assay; type: toxicity, cell-based
[12] = Stability in human liver microsomes assessed as half life at 200 uM preincubated for 5 mins followed by NADPH addition measured upto 60 mins by LC-MS/MS analysis; type: ADME, Microsome; conditions: time 65 min
[13] = biological target: Dual specificity mitogen-activated protein kinase kinase; MEK1/2 (Homo sapiens) (UniProt P36507+Q02750); assay: Inhibition of MEK phosphorylation in human MIA PaCa-2 cells upto 1 uM incubated for 4 hrs by Western blot analysis; type: cell-based
Dual specificity mitogen-activated protein kinase kinase; MEK1/2 (Homo sapiens), sequence (P36507 whole entry, looked up): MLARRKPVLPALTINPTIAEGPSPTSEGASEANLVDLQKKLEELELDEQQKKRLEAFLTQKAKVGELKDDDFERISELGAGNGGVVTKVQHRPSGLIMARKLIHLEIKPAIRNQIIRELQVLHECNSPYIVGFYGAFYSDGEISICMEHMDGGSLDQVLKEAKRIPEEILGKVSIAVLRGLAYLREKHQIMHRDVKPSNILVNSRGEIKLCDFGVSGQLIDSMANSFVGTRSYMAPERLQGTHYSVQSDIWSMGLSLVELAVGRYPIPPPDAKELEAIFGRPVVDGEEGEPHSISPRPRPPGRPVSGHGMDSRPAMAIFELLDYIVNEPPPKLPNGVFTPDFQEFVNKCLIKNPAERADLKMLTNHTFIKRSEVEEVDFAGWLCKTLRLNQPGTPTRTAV
Dual specificity mitogen-activated protein kinase kinase; MEK1/2 (Homo sapiens), sequence (Q02750 whole entry, looked up): as the sequence (Q02750 whole entry) above

[14] = tested on: Mitogen-activated protein kinase 1/3 (ERK1/2) (Homo sapiens); assay: Inhibition of ERK phosphorylation in human MIA PaCa-2 cells upto 1 uM incubated for 4 hrs by Western blot analysis

IC50 (MIA PaCa-2 [3]) [nM]	IC50 (HCT-116 [4]) [nM]	IC50 [5] [nM]	IC50 [6] [nM]	Activity [7] [%]	Activity [8] [%]	IC50 [9] [nM]	IC50 (HeLa) [nM]	half-life at 200 µM [12] [min]	inhibition [13]	inhibition [14]	SMILES	inhibition at 0.1 µM (MIA PaCa-2 [1]) [%]	inhibition at 1 µM (HCT-116 [2]) [%]	IC50 [10] [nM]	IC50 at 72 h [11] [nM]
15	183	42	4	40	-4	5	> 10000	37.7	Active	Active	CNS(=O)(=O)Nc1cccc(Cn2cnc3c(F)c(Nc4ccc(C5CC5)cc4F)c(C(=O)NOCCO)cc32)c1F	75.9	61.2	56	> 50000
115	739								Active		CNS(=O)(=O)Nc1nccc(Cc2c(C)c3ccc(Oc4ncccn4)cc3oc2=O)c1F [AVUTOMETINIB]	59.6	56.1		
48	425			80	5						CC(C)CNS(=O)(=O)Nc1cccc(Cn2cnc3c(F)c(Nc4ccc(C5CC5)cc4F)c(C(=O)NOCCO)cc32)c1	55.8	60.2		
237				75	22					Active	CC(=O)Nc1cccc(Cn2cnc3c(F)c(Nc4ccc(C5CC5)cc4F)c(C(=O)NOCCO)cc32)c1	64.8	33.3		
		> 2000									CNS(=O)(=O)Nc1cccc(Cn2cnc3c(F)c(Nc4ccc(C5CC5)cc4F)c(C(N)=O)cc32)c1	15.8	21.9		
219	457			54	4						CCNS(=O)(=O)Nc1cccc(Cn2cnc3c(F)c(Nc4ccc(C)cc4F)c(C(=O)NOCCO)cc32)c1F	55.7	57.6		
127	377			9	0						CCNS(=O)(=O)Nc1cccc(Cn2cnc3c(F)c(Nc4ccc(I)cc4F)c(C(=O)NOCCO)cc32)c1Cl	43.1	61.4		
23	123	74	7	46	0	8	> 10000	47.5		Active	CCNS(=O)(=O)Nc1cccc(Cn2cnc3c(F)c(Nc4ccc(C5CC5)cc4F)c(C(=O)NOCCO)cc32)c1	78.8	60.4	226	> 50000
150	132			55	4						CC(C)NS(=O)(=O)Nc1cccc(Cn2cnc3c(F)c(Nc4ccc(C5CC5)cc4F)c(C(=O)NOCCO)cc32)c1	65.9	59.3		
249	898			76	5						CNS(=O)(=O)Nc1cccc(Cn2cnc3c(F)c(Nc4ccc(C5CCC5)cc4F)c(C(=O)NOCCO)cc32)c1F	52.8	48.5		
31	731			20	3						CCNS(=O)(=O)Nc1cccc(Cn2cnc3c(F)c(Nc4ccc(C5CC5)cc4F)c(C(=O)NOCCO)cc32)c1Cl	76	49.6		
